Legend:
DPP-IV = biological target: T1, DPP-IV (Rattus norvegicus, UniProt P14740); test: Plasma DPP-IV activity in treated ZDF rats (Gly-Pro-AMC fluorogenic substrate); assay type: in vivo; conditions: male ZDF fa/fa rats, oral gavage BID for 7 days; Compound (I) 5 mg/kg, Compound (II) 100 mg/kg, combination of both doses; n=6; control 5544 ± 485
T1 construct: from tissue; host or cells: plasma of treated male ZDF fa/fa rats
Method: DPP-IV activity was measured using the fluorogenic substrate Gly-Pro-AMC ([…]) according to the manufacturer's specification (Enzyme System Products, Livermore Calif.). The substrate was mixed with 50 mM Tris, pH 7.8, in plasma (20% final v/v) and the samples were incubated for 5-20 min at 30 °C. DPP-IV activity was determined by measuring fluorescence using a cytofluor spectrofluoremeter with the filters set at 360 nm excitation and 460 nm emission.

male ZDF fa/fa rats [1] = test: % HbA1C 7 day change in ZDF rats; assay type: in vivo, rat; conditions: oral gavage BID for 7 days, Compound (I) 5 mg/kg, Compound (II) 100 mg/kg, combination of both doses, n=6, control 1.63 ± 1.12
Method: Age and weight matched male ZDF fa/fa rats (Genetic Models, Inc., Indianapolis, Ind.) were housed individually at 72° F. and 50% relative humidity with a 12 h light/dark cycle and fed PMI 5008 Formulab Diet (PMI Nutrition International, Saint Louis, Mo.).
(§1) Rats were anesthetized with isofluorane for cardiac blood collection 30 minutes after administration of the glucose solution. Serum chemistry measurements were obtained using an automated chemistry analyzer (ILab600, Instrument Laboratory, Lexington, Mass.).
Results from each group (n=6) were averaged and compared to vehicle treated rats to determine significance and are shown in Table I.

male ZDF fa/fa rats [2] = test: Glucose tolerance test, plasma glucose 30 min after intraperitoneal glucose, in ZDF rats; assay type: in vivo, rat; conditions: oral gavage BID for 7 days, i.p. glucose 30 min after last dose, blood 30 min after glucose, Compound (I) 5 mg/kg, Compound (II) 100 mg/kg, combination of both doses, n=6, control 695 ± 24
Method: For glucose tolerance measurements, rats were treated with test compound for 7 days and given an intraperitoneal injection of a glucose solution in saline 30 minutes after the last dose of test compound.
as §1

T1 sequence (P14740 37-767 limits assumed): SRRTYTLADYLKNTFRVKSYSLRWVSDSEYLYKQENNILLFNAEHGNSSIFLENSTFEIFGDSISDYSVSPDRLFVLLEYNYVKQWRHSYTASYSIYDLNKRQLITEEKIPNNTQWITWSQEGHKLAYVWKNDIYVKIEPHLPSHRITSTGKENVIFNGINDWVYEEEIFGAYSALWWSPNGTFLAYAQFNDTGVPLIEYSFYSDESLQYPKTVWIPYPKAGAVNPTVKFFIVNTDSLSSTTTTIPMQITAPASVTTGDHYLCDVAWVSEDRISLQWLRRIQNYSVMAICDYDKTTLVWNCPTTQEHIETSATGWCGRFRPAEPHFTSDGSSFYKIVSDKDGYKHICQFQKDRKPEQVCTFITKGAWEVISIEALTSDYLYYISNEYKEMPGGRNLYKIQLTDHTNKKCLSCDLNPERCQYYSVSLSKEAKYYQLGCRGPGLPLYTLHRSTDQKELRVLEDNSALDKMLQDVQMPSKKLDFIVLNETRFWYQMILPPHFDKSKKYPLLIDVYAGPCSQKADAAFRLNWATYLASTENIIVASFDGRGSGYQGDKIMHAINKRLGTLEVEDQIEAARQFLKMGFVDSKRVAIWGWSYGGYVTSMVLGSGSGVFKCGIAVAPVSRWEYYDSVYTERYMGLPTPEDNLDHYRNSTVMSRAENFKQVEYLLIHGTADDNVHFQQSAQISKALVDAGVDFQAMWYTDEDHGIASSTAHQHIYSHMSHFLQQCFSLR

Row | SMILES | Plasma DPP-IV activity (DPP-IV) | % HbA1C (7 day change) (male ZDF fa/fa rats [1]) | Plasma Glucose (30 min GTT) (male ZDF fa/fa rats [2])
1 | CN(CCOc1ccc(CC2SC(=O)NC2=O)cc1)c1ccccn1 (centres unmarked) [Compound (I), 5-[4-[2-(N-methyl-N-(2-pyridyl)amino)ethoxy]benzyl]thiazolidine-2,4-dione] | 4104 ± 399 | 0.79 ± 0.54 % | 665 ± 40
2 | CC[C@H](C)[C@H](N)C(=O)N1CCSC1 [Compound (II), isoleucine thiazolidide] | – | 1.81 ± 1.24% | 684 ± 60

— US20070238756A1, “COMBINATIONS OF DIPEPTIDYL PEPTIDASE IV INHIBITORS AND OTHER ANTIDIABETIC AGENTS FOR THE TREATMENT OF DIABETES MELLITUS” (priority 2000, published 2007)
